Tests used:
[1] = test system: kynurenine (KYN) and tryptophan (TRP) levels in mouse serum; test: KYN and TRP measurements, LLC-bearing mice; assay type: in vivo; conditions: AT-0174 170 mg/kg, epacadostat 200 mg/kg P.O. daily
Procedure: (§1) LLC or LLC-CR (1×10^6) cells were subcutaneously injected into the flank of C57B6/J male and female mice (5 mice per group, age 6-8 weeks, Jackson laboratory) and allowed to grow for 3 days (average tumor size=50 mm^3) before being treated with the selective IDO1 inhibitor epacadostat at 200 mg/kg daily or with AT-0174 at 170 mg/kg daily (a dual inhibitor of IDO1 and TDO enzymes). Both compounds were administered via oral gavage (P.O.) and diluted with 95% water+5% methylcellulose (0.5%) and stored at −20° C. Compound was prepared every 5 days. Methyl cellulose (95+5%) was used as control (“Veh”). Tumor growth was evaluated every 2 days by measuring tumor volume with calipers according to the following formula: tumor volume=width^2×length×0.5. At the end of the study, mice were sacrificed and the blood, tumor, and lymph nodes were collected and processed for KYN and tryptophan (TRP) measurement and immune cell assessment respectively.
Blood samples were collected via cardiac puncture from mice at the time of sacrifice and the Biochrom 30 amino acid analyzer (using ion exchange chromatography) was used to analyze free amino acids in samples. Briefly, 200 μL of serum extract and equal volume of 30% v/v deproteinization agent (sulfosalicylic acid) were mixed and vortexed for 10 s. Samples were then incubated at 55° C. for 20 min, spin down at 2500 g for 20 min at 4° C. Supernatant were collected, filtered through a 0.22 μm filter, and injected into the Biochrom 30. Values were reported compared to normal ranges in controls. Samples used in ion exchange chromatography are separated in an analytical fashion with an ion exchange column and buffers of increasing pH and ionic strength. After post-column derivatization with Ninhydrin, and colorimetric intensity recordings at 570 nm and 440 nm, the amino acids separated by chromatography were detected. Amino acid concentration was calculated by comparing the peak area of a particular amino acid to the peak area of an internal standard-AEC of known concentration, and then multiplying by its specific response factor from calibration.

[2] = test system: immune cells in LLC tumors; test: Flow cytometry immune cell analysis, LLC tumors; assay type: in vivo, mouse; conditions: AT-0174 170 mg/kg, epacadostat 200 mg/kg P.O. daily
Procedure: as §1
Tumors or lymph nodes were collected from mice and homogenized using syringe plungers. Mesh filters (40 μM) were placed on 15 mL or 50 mL tubes and the tissue suspensions were filtered. Cell filtrates were spun down at 1000 g. Red blood cell lysis buffer (1% […]) was added into the cell pellets and resuspended. Cell pellets were washed using PBS and isolated. Tumors were isolated using EasySep™ Mouse TIL (CD45) Positive Selection Kit (Stemcell Technologies). To detect regulatory T cells (T-regs) or natural killer cells (NKs), EasySep™ Mouse CD25 Regulatory T Cell Positive Selection Kit and EasySep™ Mouse CD49b Positive Selection Kit were used, respectively. Isolated cells were stained according to manufacturer's instructions. Cells were also fixed with 2% paraformaldehyde and analysis was done using the CytoFLEX Flow Cytometer (Beckman). All flow antibodies were obtained from Biolegend.

[3] = test system: lung cancer cell line A (cisplatin-sensitive); test: Growth inhibition and cytotoxicity assay (trypan blue), A cells; assay type: cell-based; conditions: Homo sapiens
Procedure: In this study 3 different human-derived lung cancer cell lines were exposed to vehicle control (parental cells B, S and A) or long-term incubation with cisplatin (BC, SC and ALC cells). Long-term incubation with cisplatin induced cisplatin-resistance in the BC, SC and ALC cell lines.
Cells were seeded in 24-well dishes and treated with various concentrations of inhibitors (i.e. Epacadostat or AT-0174). Briefly, the culture media as well as the trypsinized cells were collected and this mixture was centrifuged at 400×g for 5 min. The supernatant was discarded, re-suspended in 1 mL of Hank's buffer, and assayed for live cells and death cells using trypan blue exclusion method.
Data from in vitro experiments were performed from three separate biological replicates which were isolated and analyzed in technical triplicates. Separate measurements using the two-tailed t-test and the results were expressed as mean±standard deviation.

[4] = MTT cell viability in the cellular IDO1/TDO experiments; assay type: cell-based; conditions: mouse, read-out: Cytotoxicity IC50
Procedure: The viability of the cells in each well in the same experiment was determined using the 3-(4,5-dimethylthiazolyl-2-yl)-2,5-diphenyltetrazolium bromide (MTT) colourimetric assay. After the removal of the supernatant for determination of IDO1 inhibition, the cells were incubated with MTT (500 μg/mL) until crystal formation was observed. Plates were centrifuged for 15 min at 2500 g, and then all the supernatant in then wells was discarded. DMSO (100 μL/well) was added to dissolve the crystals and then the absorbance in each well was measured at 570 nm. Cell viability in each well was expressed as a percentage of untreated controls. Triplicate cultures were used for all experiments unless stated otherwise.
The viability of the cells in each well in the same experiment was determined using the 3-(4,5-dimethylthiazolyl-2-yl)-2,5-diphenyltetrazolium bromide (MTT) colourimetric assay.

[5] = test system: LLC-CR (cisplatin-resistant cell tumours); test: Tumor growth in syngeneic mouse model, LLC-CR allografts; assay type: in vivo; conditions: for tumor weight: LLC-CR allograft mice, FIG. 2C; for tumor volume, Mean: LLC-CR tumours, AT-0174 170 mg/kg, epacadostat 200 mg/kg P.O. daily; for Tumor growth: cisplatin-resistant tumor group, FIG. 2B
Procedure: Cisplatin resistant mouse cell lines (LLC-CR) were derived from LLC (mouse Lewis lung cancer cells (epidermoid carcinoma), ATCC) through treatment with increasing doses of cisplatin intermittently. LLC-CR clones were maintained in half GI50 dosage concentration. […] The cultures were observed daily and allowed to grow until they reached an initial cell density. […] After the cells recovered from cisplatin toxicity, they were treated again with increasing dosage of cisplatin for 24 h. These cells are seeded at 500-1000 cells per dish and cultured for 5-7 days. Clones are selected and expanded as well as tested for cisplatin sensitivity. Similar processes of exposure are carried out for a third and fourth time to generate higher resistant clones. At the end, the resistance clones (LLC-CR) were maintained in media completed with 1 μg/ml (half GI50 dosage) of cisplatin. […] Both compounds were administered via oral gavage (P.O.) and diluted with 95% water+5% methylcellulose (0.5%) and stored at −20° C. Compound was prepared every 5 days. Methyl cellulose (95+5%) was used as control (“Veh”). […] At the end of the study, mice were sacrificed and the blood, tumor, and lymph nodes were collected and processed for KYN and tryptophan (TRP) measurement and immune cell assessment respectively. In this example, LLC-CR from the Lewis lung mouse cell line (LLC; see methods) was used to determine, in vivo, the effect of IDO1 or dual IDO1/TDO inhibition on tumor growth. Mice were inoculated with either LLC or LLC-CR and treated with epacadostat (200 mg/kg P.O. 1/day) or AT-0174 (170 mg/kg P.O. 1/day).

Row | Structure (SMILES) | KYN/TRP Ratio [1] | Kynurenine [1] | Tyrptophan [1] | CD3^+ CD8^+ T-Effector [2] | CD3^+ CD49^+ NKG2D^+ NK Cells [2] | CD4^+ CD25^+ FoxP3^+ T-regs [2] | tumor weight [5] | tumor volume, Mean ([5]; day 1) [mm^3] | tumor volume, Mean ([5]; day 2) [mm^3] | tumor volume, Mean ([5]; day 3) [mm^3] | tumor volume, Mean ([5]; day 4) [mm^3] | tumor volume, Mean ([5]; day 5) [mm^3] | tumor volume, Mean ([5]; day 6) [mm^3] | tumor volume, Mean ([5]; day 7) [mm^3] | tumor volume, Mean ([5]; day 8) [mm^3] | tumor volume, Mean ([5]; day 9) [mm^3] | tumor volume, Mean ([5]; day 10) [mm^3] | tumor volume, Mean ([5]; day 11) [mm^3] | tumor volume, Mean ([5]; day 12) [mm^3] | tumor volume, Mean ([5]; day 13) [mm^3] | further results
1 | Nc1noc2nc(Cl)c(F)cc12 [Compound 66, 6-Chloro-5-fluoroisoxazolo[5,4-b]pyridin-3-amine] | 1.11 ± 0.17 | 64.2 ± 9.3 | 59.2 ± 4.4 | 5.38 ± 0.79 | 3.58 ± 0.70 | 10.05 ± 0.79 | Significant reduction in tumor weight | 57.0 | 93.0 | 102.0 | 115.0 | 135.0 | 153.0 | 185.0 | 198.0 | 213.0 | 228.0 | 272.0 | 280.0 | 310.0 | viability at 12.5 µM ([3]; 12.5 μM AT-0174): 92.8 ± 8.5%; viability at 25 µM ([3]; 25.0 μM AT-0174): 75.1 ± 14.1%; viability at 50 µM ([3]; 50.0 μM AT-0174): 74.4 ± 7.1%; IC50 at 24 h [4]: > 100 µM; tumor volume, Mean ([5]; day 14): 345.0 mm^3; tumor volume, Mean ([5]; day 15): 360.0 mm^3; Tumor growth [5]: significantly reduced
2 | NS(=O)(=O)NCCNc1nonc1C(=NO)Nc1ccc(F)c(Br)c1 [Epacadostat, epacadostat, reference compound] | 1.35 ± 0.23 | 74.6 ± 7.7 | 58.6 ± 5.6 | 5.16 ± 0.65 | 2.66 ± 0.57 | 13.27 ± 0.83 | reduction of the total tumor weight | 57.0 | 89.0 | 96.0 | 126.0 | 137.0 | 158.0 | 212.0 | 291.0 | 340.0 | 390.0 | 430.0 | 490.0 | 511.0 | tumor volume, Mean ([5]; day 15): 565.0 mm^3; Tumor growth [5]: significantly reduced

Reference: US20250186410A1, “DUAL INHIBITORS OF TRYPTOPHAN DIOXYGENASES (IDO1 AND TDO) AND THEIR USE IN THERAPY” (ANTIDO THERAPEUTICS INTERNATIONAL SÀRL, priority 2022, published 2025)
